From US20230192748A1 (DoubleRainbow Biosciences Inc., priority 2020, published 2023)
Converted amounts (≈) assume the structure as drawn.

Experiments:
[1] = cited from earlier work
[2] = test system: blood plasma proteins (primarily albumin); conditions: cited from earlier work
[3] = in vivo; cited from earlier work
[4] = aqueous solutions, 80° C., pH 5; cited from earlier work
physchem = conditions: distilled water, 25 °C, thermodynamic from solid
Method: (§1) Afterwards, each sample was centrifuged at 12,000×g for 20 min. The supernatant of each sample was then filtered through a 0.45-μm membrane filter and the concentration of the compound in the supernatant, which is defined as the water-soluble component, was measured by its absorbance at 254 nm using HPLC, and its absolute solubility was calculated in reference to the concentration-absorbance standard curve.

[5] = distilled water, 25° C.
Method: as §1

[6] = etoposide phosphate plus cisplatin; cited from earlier work
[7] = test system: etoposide-resistant cell line; conditions: cited from earlier work

COc1cc([C@@H]2c3cc4c(cc3[C@@H](O[C@@H]3O[C@@H]5CO[C@@H](C)O[C@H]5[C@H](O)[C@H]3O)[C@H]3COC(=O)[C@H]23)OCO4)cc(OC)c1O [etoposide, Etoposide]
solubility in aqueous solutions ([1]; 37° C.): 150 to 170 µg/mL | bound to blood plasma proteins [2]: 97% | half-life [3]: 4 to 11 h | half life [4]: 0.643 h | solubility at 12 h (physchem): 56 µg/mL (≈ 95.1 µM)

COc1cc(C2c3cc4c(cc3C(OC3OC5COC(C)OC5C(OC5OC(CO)C(O)C(O)C5O)C3O)C3COC(=O)C23)OCO4)cc(OC)c1O (stereo not drawn)
water solubility relative to etoposide [5]: 200 times

COc1cc([C@@H]2c3cc4c(cc3[C@@H](O[C@@H]3O[C@@H]5CO[C@@H](C)O[C@H]5[C@H](O)[C@H]3O)[C@H]3COC(=O)[C@H]23)OCO4)cc(OC)c1OP(=O)(O)O [Etoposide phosphate]
aqueous solubility [1]: 20000 µg/mL | difference in PK/PD parameters or overall response rate versus etoposide plus cisplatin [6]: no statistically significant difference

COc1cc([C@@H]2c3cc4c(cc3[C@@H](O[C@@H]3O[C@@H]5CO[C@@H](C)O[C@H]5[C@H](O)[C@H]3O)[C@H]3COC(=O)[C@H]23)OCO4)cc(OC)c1OC(=O)OCC1COC(C)(C)O1 (stereo partly drawn) [CAP7.1]
concentrations cytotoxic to an etoposide-resistant cell line [7]: nanomolar concentrations
